The source of these data is ChEMBL document CHEMBL4184320, “Optimization of Selective Mitogen-Activated Protein Kinase Interacting Kinases 1 and 2 Inhibitors for the Treatment of Blast Crisis Leukemia” (J Med Chem, 2018).

Each structure is given as a SMILES string. Converted amounts (≈) assume the structure as drawn.

Data set [1] has as its target MAP kinase-interacting serine/threonine-protein kinase 1 (Homo sapiens, UniProt Q9BUB5).
Description: Inhibition of GST-tagged MNK1 (37 to 341 residues) (unknown origin) expressed in Escherichia coli BL21(DE3) using JH3 peptide as substrate preincubated for 10 mins followed by substrate and ATP addition measured after 60 mins
The target in data set [2] is MAP kinase-interacting serine/threonine-protein kinase 1/2 (Homo sapiens, UniProt Q9HBH9+Q9BUB5). Briefly: Inhibition of MNK1/2 in human HeLa cells assessed as decrease in eIF4E phosphorylation at Ser209 after 2 hrs by AlphaScreen assay. It counts as cell-based.
The target in data set [3] is MAP kinase-interacting serine/threonine-protein kinase 2 (Homo sapiens, UniProt Q9HBH9).
Description: Inhibition of GST-tagged MNK2 (72 to 385 residues) (unknown origin) expressed in Escherichia coli BL21(DE3) using JH3 peptide as substrate preincubated for 10 mins followed by substrate and ATP addition measured after 60 mins
Data set [4] in a line: Permeability of the compound by PAMPA. Format: ADME. Conditions: read-out: permeability.
Data set [5] is described as follows: Octanol-phosphate buffer partition coefficient, logD of compound at pH 7.4 by HPLC-UV analysis. Format: physicochemical.
The nature of data set [6]: Thermodynamic solubility of the compound at pH 4 to 7.4 pION buffer after 18 hrs by UV spectrophotometric analysis. Conditions: read-out: Therm_solubility. It counts as physicochemical.

Sequence of MAP kinase-interacting serine/threonine-protein kinase 1 (Q9BUB5 whole entry): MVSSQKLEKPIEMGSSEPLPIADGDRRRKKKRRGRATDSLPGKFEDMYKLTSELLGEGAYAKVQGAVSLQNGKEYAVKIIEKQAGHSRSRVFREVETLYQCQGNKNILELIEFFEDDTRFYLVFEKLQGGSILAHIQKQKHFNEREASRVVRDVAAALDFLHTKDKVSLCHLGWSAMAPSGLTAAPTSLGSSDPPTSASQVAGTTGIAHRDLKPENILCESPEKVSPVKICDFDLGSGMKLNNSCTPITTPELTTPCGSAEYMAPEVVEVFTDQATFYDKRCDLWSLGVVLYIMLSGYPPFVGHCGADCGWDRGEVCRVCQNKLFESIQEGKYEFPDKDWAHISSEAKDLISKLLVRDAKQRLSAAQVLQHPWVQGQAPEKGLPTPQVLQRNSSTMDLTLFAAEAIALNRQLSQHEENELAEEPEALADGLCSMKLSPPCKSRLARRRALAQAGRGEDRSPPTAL
Sequence of MAP kinase-interacting serine/threonine-protein kinase 2 (Q9HBH9 whole entry): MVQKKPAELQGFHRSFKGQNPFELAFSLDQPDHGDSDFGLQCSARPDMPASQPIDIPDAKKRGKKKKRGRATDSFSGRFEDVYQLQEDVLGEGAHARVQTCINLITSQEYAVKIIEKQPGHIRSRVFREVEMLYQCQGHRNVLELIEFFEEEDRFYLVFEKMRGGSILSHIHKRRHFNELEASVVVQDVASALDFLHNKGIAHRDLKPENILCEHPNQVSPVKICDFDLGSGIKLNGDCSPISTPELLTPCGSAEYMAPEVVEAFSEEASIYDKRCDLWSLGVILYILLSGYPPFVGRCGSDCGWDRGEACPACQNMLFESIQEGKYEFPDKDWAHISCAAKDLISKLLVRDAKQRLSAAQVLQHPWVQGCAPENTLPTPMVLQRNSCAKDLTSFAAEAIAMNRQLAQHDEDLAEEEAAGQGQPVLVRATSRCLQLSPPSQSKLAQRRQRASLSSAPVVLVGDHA

Consider `CN1CCN(C(=O)c2ccc(-c3cn4c(-c5ccc(C(=O)NO)cc5)cnc4cn3)cc2)CC1`, for which the half-maximal inhibitory concentration (IC50) in data set [1] was 0.06 µM; in data set [2] it was over 2.5 µM; in data set [3] it was 0.031 µM.
As for `CN1CCN(C(=O)c2ccc(-c3cn4c(-c5cccc(O)c5)cnc4cn3)cc2)CC1`, the values for the IC50 in data set [1], in data set [2] and in data set [3] were 1.3 µM, 1.33 µM and 0.742 µM, respectively. In addition, the Papp in data set [4] was 33.2 ×10⁻⁶ cm/s. In data set [5], the log distribution coefficient (logD) was 2.31. Also, in data set [6], the solubility thermodynamic at 18 h came to 116 µg/mL (≈ 281 µM).
As to `O=C(Nc1cn2c(-c3ccc(O)cc3)cnc2cn1)c1ccccc1`, the IC50 was 3.35 µM in data set [1] and 1.08 µM in data set [3].
Take `CN1CCN(C(=O)c2ccc(-c3cn4c(-c5ccc(Cl)cc5)cnc4cn3)cc2)CC1`: the IC50 in data set [1] worked out at 0.331 µM; in data set [2], 0.759 µM; in data set [3] it was 0.217 µM. In addition, the Papp in data set [4] came to 71.3 ×10⁻⁶ cm/s. For the same molecule, the logD in data set [5] was determined as 2.96. Also, in data set [6], the solubility thermodynamic at 18 h is 118 µg/mL (≈ 273 µM).
Consider `CN1CCN(C(=O)c2ccc(-c3cn4c(-c5ccc(O)cc5)cnc4cn3)cc2)CC1`, for which the IC50 was 0.284 µM in data set [1], 0.189 µM in data set [2] and 0.14 µM in data set [3]. Also, in data set [4], the Papp was 34.7 ×10⁻⁶ cm/s. The same molecule displayed a pH-dependent lipophilicity (logD) in data set [5] of 2.25. Further, the solubility thermodynamic at 18 h in data set [6] was determined as 114 µg/mL (≈ 276 µM).
As for `O=C(c1ccc(-c2cn3c(-c4ccc(O)cc4)cnc3cn2)cc1)N1CCOCC1`, the IC50 in data set [1] stood at 0.125 µM; in data set [2], 0.13 µM; in data set [3], 0.113 µM. For the same molecule, the Papp in data set [4] turned out to be 50.2 ×10⁻⁶ cm/s. Further, the logD in data set [5] is 2.21. The solubility thermodynamic at 18 h in data set [6] came to 11.5 µg/mL (≈ 28.7 µM).
Regarding `Oc1ccc(-c2cnc3cnc(-c4ccccc4)cn23)cc1`, the IC50 turned out to be 0.528 µM in data set [1], 0.819 µM in data set [2] and 0.415 µM in data set [3].
For `Cc1ccc(-c2cnc3cnc(-c4ccc(C(=O)N5CCN(C)CC5)cc4)cn23)cc1`, the half-maximal inhibitory concentration (IC50) in data set [1] was found to be 0.6 µM; in data set [2], 1.21 µM; in data set [3], 0.41 µM.
In the same order, the values of `CN1CCN(C(=O)c2ccc(-c3cn4c(-c5ccccc5)cnc4cn3)cc2)CC1` are 2.68 µM, 1.92 µM and 1.43 µM.
`CN1CCN(C(=O)c2ccc(-c3cn4c(-c5ccc(C(N)=O)cc5)cnc4cn3)cc2)CC1`: the half-maximal inhibitory concentration (IC50) in data set [1] is 0.294 µM; in data set [2], over 2.5 µM; in data set [3], 0.187 µM. Also, the Papp in data set [4] was 1.78 ×10⁻⁶ cm/s. In addition, in data set [5], the pH-dependent lipophilicity (logD) is 0.98. For the same molecule, the solubility thermodynamic at 18 h in data set [6] amounted to 126 µg/mL (≈ 286 µM).
On to `CN1CCN(C(=O)c2ccc(-c3cn4c(-c5ccc(C(F)F)cc5)cnc4cn3)cc2)CC1`, for which the IC50 in data set [1] worked out at 0.369 µM; in data set [2] it was 1.63 µM; in data set [3] it was 0.336 µM. Further, in data set [4], the Papp worked out at 76.2 ×10⁻⁶ cm/s. In data set [5], this molecule came in with a logD of 2.55. Besides, the solubility thermodynamic at 18 h in data set [6] was determined as 66.9 µg/mL (≈ 150 µM).
For `CN1CCN(C(=O)c2ccc(-c3cn4c(-c5ccccc5O)cnc4cn3)cc2)CC1`, the half-maximal inhibitory concentration (IC50) in data set [1] worked out at 9.5 µM; in data set [3] it was 5.17 µM.
In the case of `CN1CCN(C(=O)c2ccc(-c3cn4c(-c5ccc(C(F)(F)F)cc5)cnc4cn3)cc2)CC1`, the IC50 was found to be 0.574 µM in data set [1], 1.99 µM in data set [2] and 0.389 µM in data set [3]. For the same molecule, the Papp in data set [4] was determined as 87.4 ×10⁻⁶ cm/s. In addition, the pH-dependent lipophilicity (logD) in data set [5] was 2.95. The solubility thermodynamic at 18 h in data set [6] worked out at 90.4 µg/mL (≈ 194 µM).
For `CC(=O)N1CCN(C(=O)c2ccc(-c3cn4c(-c5ccc(O)cc5)cnc4cn3)cc2)CC1`, the IC50 is 0.224 µM in data set [1], over 2.5 µM in data set [2] and 0.16 µM in data set [3]. The Papp in data set [4] is 2.82 ×10⁻⁶ cm/s. This molecule also yielded a log distribution coefficient (logD) in data set [5] of 1.68. The solubility thermodynamic at 18 h in data set [6] turned out to be 144 µg/mL (≈ 326 µM).
On to `CC(=O)Nc1cn2c(-c3ccc(O)cc3)cnc2cn1`, for which the half-inhibitory concentration (IC50) in data set [1] is 0.789 µM; in data set [2], over 2.5 µM; in data set [3] it was 0.515 µM.
